Experimental data taken from patent publication EP0976747A2, “Use of 5HT-1F receptor antagonists for treating anxiety disorders” (ELI LILLY AND COMPANY, priority 1998, dated 2000).

Tested on: male Wister rats
Test: Social interaction test of experimental anxiety
Format: in vivo
Conditions: 20 mg/kg intraperitoneal, tested 1 hour after dosing, 5 minutes observation, compared to baseline, significance at p<0.01
Description: The procedure for this assay is summarized below.
All experiments were performed on male Wister rats (Harlan laboratories, 275-300 gm). The rats were individually housed in a temperature controlled room (72°F) on a 12 hour day/night cycle. The rats were provided food and water ad libitum.
Approximately 40 mg of the test compound was weighed into a 20 mL glass vial. To this solid were added 80µL of lactic acid (85%). The mixture was sonicated for 2 minutes and then 4mL of distilled water was added in lmL increments. Sonication of this mixture was continued until all of the solid had dissolved. Following sonication, the pH of the mixture was raised by the addition of dilute aqueous sodium hydroxide until the mixture reached a pH of about 5.5.
Each rat was weighed and the test compound administered by intraperitoneal injection at 20 mg/kg of body weight. […]
Experimental anxiety was measured by a social interaction test. […] A video camera was fixed above the social interaction box and all behavioral tests were recorded. […] The amount of time that the rat which received test compound spent interacting (i.e. grooming, sniffing, crawling upon) with the other rat was recorded. […]
Social interaction data was analyzed as total interaction time in seconds and the raw scores were compared between baseline and treatment. […]

O[C@H](COc1ccc2ccccc2c1)CN1CCC(O)(c2cnc3ccccc3c2)CC1 [Example 37, 1-((2S)-hydroxy-3-(naphth-2-yloxy)prop-1-yl)-4-hydroxy-4-(quinolin-3-yl)piperidine]
social interaction time: significantly increase social interaction time as compared to baseline
